The source of these data is publication PMC12388126, “Photochemically Assisted Synthesis of Thienobenzotriazole-Based Dual Cholinesterase Inhibitors” (Molecules, 2025).

For data set [1], the system named is LPS-induced TNF-α production. Also noted: method as in PMID 40732321. The following applies: read-out: IC50, inhibition of LPS-induced TNF-α production; cited from earlier work.
Data set [2] concerns the target T1, butyrylcholinesterase (BChE) (Equus caballus, UniProt P81908).
T1 construct: BChE (extracted from equine serum); purchased Sigma-Aldrich; host or cells: equine serum (natural source)
As to the kind of experiment: BChE inhibition, modified Ellman method. It counts as biochemical. On the procedure:
(§1) Building on the previously promising in vitro results of thienobenzo-1,2,3-triazolinium salts against cholinesterases, research was extended to a series of structurally related bromide salts. The inhibitory effects of a new set of triazolinium salts (1–4, 7–11, 14–17) on the activities of acetylcholinesterase (AChE) and butyrylcholinesterase (BChE) are summarized in Table 1. Their inhibitory activity was assessed using a modified Ellman method over a wide concentration range (0.01–250 μM). The IC50 values listed in Table 1 are relative IC50 values, obtained directly from the nonlinear regression analysis of the inhibition curves under defined test conditions. For reference, the inhibitory effect at the highest tested concentration is also reported. The results were compared with galantamine, a well-known cholinesterase inhibitor used in the treatment of Alzheimer’s disease.
(§2) The inhibitory effects of the new synthesized thiabenzo-1,2,3-triazolinium bromide salts, 1–4, 7–11, and 14–17, on acetylcholinesterase (AChE) and butyrylcholinesterase (BChE) activity were evaluated using the modified Ellman’s method.
(§3) DTNB, ATChI, and BTChI were prepared in 50 mM Tris buffer (pH 8.0), while the enzymes were made in 20 mM Tris buffer (pH 7.5). Using a 96-well microplate reader (Agilent, BioTek 800TS, Santa Clara, CA, USA), cholinesterase activity was assessed. Amounts of 180 μL of 50 mM Tris buffer, 10 μL of tested solutions with final concentrations ranging from 0.01 to 250 μM, and 10 μL of an enzyme with a final concentration of 0.03 U/mL were added to the microplate well, which was then left to incubate for 15 min at room temperature. Following incubation, 10 μL of DTNB (final concentration: 0.3 mM) and […] of ATChI/BTChI (final concentration: 0.5 mM) were added to the reaction mixture. After four minutes, the absorbance was measured at 405 nm. Non-enzymatic hydrolysis was assessed as a blank for the control measurement in the absence of inhibitors and enzymes. The samples were tested using the non-enzymatic hydrolysis procedure with an additional inhibitor as a blank. The enzyme was swapped out for the same amount of buffer.
(§4) The inhibition % was determined using the following formula: Inhibition (%) = [(AC − AT)/AC] × 100, where AC is the activity of the enzyme without a test sample and AT is the activity of the enzyme with a test sample. The mean values ± standard deviation are used to illustrate the results. Inhibitory activity of ethanol was deducted from each sample. A nonlinear fit of compound concentration values vs. response was used to determine the IC50 values. Each trazolinium salt was tested against both enzymes in triplicate.
A general note: DTNB colorimetry detects thiols as they appear.

The target of data set [3] is acetylcholinesterase (AChE) (Electrophorus electricus, UniProt O42275). The experiment in a line: AChE inhibition, modified Ellman method. It counts as biochemical. The following applies: for IC50: relative IC50 from nonlinear regression, tested 0.01–250 μM. On the procedure: as §1, §2, §3, §4
Data set [4] relates to LPS-stimulated TNFα production in PBMCs. As to the kind of experiment: TNFα production in LPS-stimulated PBMCs (ELISA). Format: cell-based, human. As to the method:
The potential anti-inflammatory activity of compounds 1–4, 7–11, and 14–17 was also evaluated in vitro by the measurement of TNFα production in LPS-stimulated PBMCs. […] At lower concentrations that were not affecting cell viability, LPS-induced TNFα production was not changed. […] Compound 17 was active only at the highest tested concentration.
The effect of compounds on tumor necrosis factor alpha (TNFα) production in lipopolysaccharide (LPS)-stimulated peripheral blood mononuclear cells (PBMCs) was evaluated as described previously. […]
(§5) For cell viability evaluation, CellTiter-Glo reagent was used (Promega, Radoboj, Croatia) according to the manufacturer’s instructions. […] TNFα concentration in supernatants was measured by ELISA using antibodies and recombinant human TNFα protein (standard) from R&D Systems. […] Finally, after the plates were incubated with streptavidin HRP (Invitrogen, Thermo Fisher Scientific, Waltham, MA, USA), chemiluminescence ELISA Substrate (Roche, Zagreb, Croatia) was added to the wells and luminescence was measured using EnVision 2105 multilabel reader (Revvity, Waltham, MA, USA). Concentrations of TNFα in the supernatants were calculated using measured luminescence by interpolation from standard curves. […]
(An ELISA detects its analyte on a solid surface through an enzyme-linked reagent.)

In data set [5] the test system is PBMCs. The experiment in a line: Cell viability of PBMCs (CellTiter-Glo). The following applies: LPS-stimulated PBMCs, 24 h. Format: cell-based. As to the method:
The effect of compounds on tumor necrosis factor alpha (TNFα) production in lipopolysaccharide (LPS)-stimulated peripheral blood mononuclear cells (PBMCs) was evaluated as described previously. In short, PBMCs were isolated from buffy coats obtained from healthy adult volunteers and resuspended in RPMI1640 medium (Capricorn Scientific, Ebsdorfergrundu, Germany) supplemented with 10% heat-inactivated FBS (Biowest, Nuailléu, France), 1% GlutaMAX (Gibco, St. Louis, MO, USA), and 1% Antibiotic-Antimycotic (Gibco, St. Louis, MO, USA). PBMCs were seeded as 2 × 10^5 per well of a 96-well plate. […]
as §5
(ATP-based viability assays read luminescence as a measure of living cells.)

The subject of data set [6] is BChE. Also noted: method as in PMID 40732321. The following applies: cited from earlier work.
Where [7] appears, read: relative IC50 from nonlinear regression, tested 0.01–250 μM, read-out: BChE IC50.

Read-outs that look alike come from different tables or passages of the source.

acetylcholinesterase (AChE), sequence (O42275 24-633): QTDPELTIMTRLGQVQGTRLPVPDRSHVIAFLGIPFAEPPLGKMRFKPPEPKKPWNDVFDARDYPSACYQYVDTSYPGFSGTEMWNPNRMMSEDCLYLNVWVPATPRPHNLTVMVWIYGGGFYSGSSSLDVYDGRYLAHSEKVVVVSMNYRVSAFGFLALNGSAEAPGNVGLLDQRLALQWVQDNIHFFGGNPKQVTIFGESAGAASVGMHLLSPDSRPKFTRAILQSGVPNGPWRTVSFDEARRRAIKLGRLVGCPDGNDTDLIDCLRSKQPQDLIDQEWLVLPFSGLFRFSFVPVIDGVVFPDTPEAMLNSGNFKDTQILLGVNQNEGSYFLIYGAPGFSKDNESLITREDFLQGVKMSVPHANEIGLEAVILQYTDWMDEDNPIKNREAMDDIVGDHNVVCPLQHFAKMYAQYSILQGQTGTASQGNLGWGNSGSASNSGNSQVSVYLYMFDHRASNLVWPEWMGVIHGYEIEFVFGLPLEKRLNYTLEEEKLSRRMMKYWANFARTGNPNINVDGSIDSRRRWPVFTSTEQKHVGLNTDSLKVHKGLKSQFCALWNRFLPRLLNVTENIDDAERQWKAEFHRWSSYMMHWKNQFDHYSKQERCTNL
T1 sequence (P81908 whole entry): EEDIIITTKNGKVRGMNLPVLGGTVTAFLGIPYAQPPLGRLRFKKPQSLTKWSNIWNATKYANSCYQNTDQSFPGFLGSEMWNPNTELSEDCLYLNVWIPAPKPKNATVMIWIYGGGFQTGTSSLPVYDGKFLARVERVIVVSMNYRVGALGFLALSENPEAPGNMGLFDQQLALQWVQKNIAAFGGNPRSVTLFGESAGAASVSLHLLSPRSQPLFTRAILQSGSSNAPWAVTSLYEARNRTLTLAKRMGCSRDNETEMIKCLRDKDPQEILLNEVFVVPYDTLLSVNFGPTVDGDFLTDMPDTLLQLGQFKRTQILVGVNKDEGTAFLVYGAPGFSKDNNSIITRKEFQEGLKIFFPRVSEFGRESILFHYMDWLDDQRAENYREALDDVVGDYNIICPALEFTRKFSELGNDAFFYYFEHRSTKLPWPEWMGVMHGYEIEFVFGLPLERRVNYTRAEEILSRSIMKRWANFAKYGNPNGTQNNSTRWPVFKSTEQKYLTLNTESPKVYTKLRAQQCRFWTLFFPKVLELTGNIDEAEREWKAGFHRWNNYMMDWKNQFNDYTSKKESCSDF

Consider `Cc1ccc(C[n+]2nn(Cc3cccc(F)c3)c3c4ccsc4ccc32)cc1` [F], for which the IC50 (as a rule, the concentration at which inhibition is half-maximal) in data set [1] is 0.66 µM.
As to `Cc1cccc(Cn2n[n+](Cc3ccccc3)c3ccc4sccc4c32)c1` [Compound 1, 3-benzyl-1-(3-methylbenzyl)-1H-thieno[3′,2′:3.4]benzo[1.2-d][1.2,3]triazol-3-ium bromide], the inhibition – broadly, the change of the read-out against control, counted positive when it falls – at 25 µM in data set [2] (read-out: BChE Inhibition (%)) is 83.9 ± 0.2%. The values for the IC50 in data set [2] (setting [7]) and in data set [3] were 0.4 µM and 6.3 µM, respectively. Moreover, the inhibition at 50 µM in data set [3] (read-out: AChE Inhibition (%)) worked out at 78.6 ± 0.5%.
As for `CC=Cn1n[n+](Cc2ccc([N+](=O)[O-])cc2)c2ccc3sccc3c21` [Compound 17, 3-(4-nitrobenzyl)-1-(prop-1-en-1-yl)-1H-thieno[3′,2′:3,4]benzo[1,2-d][1–3]triazol-3-ium], the results for the inhibition at 100 µM in data set [2] (read-out: BChE Inhibition (%)) and in data set [3] (read-out: AChE Inhibition (%)) were 85.5 ± 0.5% and 62.6 ± 5.3%, respectively. In addition, the IC50 in data set [2] (setting [7]) came out at 11.4 µM; in data set [3], 63.8 µM. For the same compound, in data set [4] (PBMCs, starting concentration 100 µM, three-fold dilutions), the “effect on LPS-stimulated TNFα production” value was “slightly inhibited LPS-stimulated TNFα production”. In addition, the “effect on cell viability” value in data set [5] is on record as “no effect on cell viability”. The “classification as AChE inhibitor” value in data set [3] (in words) is “weak AChE inhibitor”.
For the compound `C[C@@H]1C[C@H]2[C@@H]3CCC4=CC(=O)C=C[C@]4(C)[C@@]3(F)[C@@H](O)C[C@]2(C)[C@@]1(O)C(=O)CO` [dexamethasone, reference compound], the IC50 in data set [4] (Homo sapiens, PBMC, PBMCs from two donors, read-out: IC50, inhibition of LPS-stimulated TNFα production) came out at 0.0035 µM.
As for `C=CCn1n[n+](Cc2ccccc2)c2ccc3sccc3c21` [E], in data set [6], the IC50 is 0.098 µM.
`CC=Cn1n[n+](Cc2ccccc2)c2ccc3sccc3c21` [Compound 14, 3-benzyl-1-(prop-1-en-1-yl)-1H-thieno[3′,2′:3.4]benzo[1.2-d][1.2,3]triazol-3-ium bromide]: the results for the IC50 in data set [2] and in data set [3] were 1 µM and 4.3 µM, respectively. Moreover, the inhibition at 25 µM in data set [2] (read-out: BChE Inhibition (%)) worked out at 80.4 ± 2.9%. Also, the inhibition at 100 µM in data set [3] (read-out: AChE Inhibition (%)) was 84.2 ± 0.5%.
